Data taken from the NIST ThermoML archive (doi:10.1016/j.tca.2012.12.008).
± gives the expanded uncertainty stated by the source.

Experiment: xn = mol fraction of the nth substance listed
Details: 101 kPa, Liquid; for viscosity: Capillary tube (Ostwald / Ubbelohde) method; for mass density: Vibrating tube method

Work on `CCCCCC(C)O` (stereo not drawn) [2-heptanol] + CCC(C)=O yielded a viscosity (298.15 K, x2 = 0) of 5.003 ± 0.037 mPa·s, a viscosity (298.15 K, x2 = 0.0834) of 3.89 ± 0.029 mPa·s and a viscosity (298.15 K, x2 = 0.1619) of 3.091 ± 0.023 mPa·s. For the same molecule, the viscosity (298.15 K, x2 = 0.2426) was 2.441 ± 0.019 mPa·s, the viscosity (298.15 K, x2 = 0.3491) was 1.793 ± 0.014 mPa·s and the viscosity (298.15 K, x2 = 0.4375) was 1.367 ± 0.011 mPa·s. For the same molecule, the viscosity (298.15 K, x2 = 0.5661) was 0.901 ± 0.007 mPa·s, the viscosity (298.15 K, x2 = 0.6502) was 0.712 ± 0.006 mPa·s and the viscosity (298.15 K, x2 = 0.7371) was 0.592 ± 0.005 mPa·s. For the same molecule, the viscosity (298.15 K, x2 = 0.8498) was 0.451 ± 0.004 mPa·s, the viscosity (298.15 K, x2 = 0.9401) was 0.398 ± 0.004 mPa·s and the mass density (298.15 K, x2 = 0) was 813.18 ± 0.24 kg/m3. For the same molecule, the mass density (298.15 K, x2 = 0.0834) was 811.4 ± 0.24 kg/m3, the mass density (298.15 K, x2 = 0.1619) was 809.92 ± 0.24 kg/m3 and the mass density (298.15 K, x2 = 0.2426) was 808.4 ± 0.24 kg/m3. The mass density (298.15 K, x2 = 0.3491) was 806.63 ± 0.24 kg/m3, the mass density (298.15 K, x2 = 0.4375) was 805.3 ± 0.24 kg/m3 and the mass density (298.15 K, x2 = 0.5661) was 803.5 ± 0.24 kg/m3. It also gave a mass density (298.15 K, x2 = 0.6502) of 802.41 ± 0.24 kg/m3, a mass density (298.15 K, x2 = 0.7371) of 801.4 ± 0.24 kg/m3 and a mass density (298.15 K, x2 = 0.8498) of 800.4 ± 0.24 kg/m3. The mass density (298.15 K, x2 = 0.9401) was 799.73 ± 0.24 kg/m3, the viscosity (303.15 K, x2 = 0) was 4.152 ± 0.031 mPa·s and the viscosity (303.15 K, x2 = 0.0834) was 3.282 ± 0.025 mPa·s. The viscosity (303.15 K, x2 = 0.1619) was 2.614 ± 0.02 mPa·s, the viscosity (303.15 K, x2 = 0.2426) was 2.083 ± 0.016 mPa·s and the viscosity (303.15 K, x2 = 0.3491) was 1.528 ± 0.012 mPa·s. For the same molecule, the viscosity (303.15 K, x2 = 0.4375) was 1.184 ± 0.009 mPa·s, the viscosity (303.15 K, x2 = 0.5661) was 0.818 ± 0.007 mPa·s and the viscosity (303.15 K, x2 = 0.6502) was 0.659 ± 0.006 mPa·s. For the same molecule, the viscosity (303.15 K, x2 = 0.7371) was 0.552 ± 0.005 mPa·s, the viscosity (303.15 K, x2 = 0.8498) was 0.434 ± 0.004 mPa·s and the viscosity (303.15 K, x2 = 0.9401) was 0.386 ± 0.004 mPa·s. For the same molecule, the mass density (303.15 K, x2 = 0) was 809.26 ± 0.24 kg/m3, the mass density (303.15 K, x2 = 0.0834) was 807.5 ± 0.24 kg/m3 and the mass density (303.15 K, x2 = 0.1619) was 805.97 ± 0.24 kg/m3. The mass density (303.15 K, x2 = 0.2426) was 804.47 ± 0.24 kg/m3, the mass density (303.15 K, x2 = 0.3491) was 802.53 ± 0.24 kg/m3 and the mass density (303.15 K, x2 = 0.4375) was 801.03 ± 0.24 kg/m3. For the same molecule, the mass density (303.15 K, x2 = 0.5661) was 799.1 ± 0.24 kg/m3, the mass density (303.15 K, x2 = 0.6502) was 797.92 ± 0.24 kg/m3 and the mass density (303.15 K, x2 = 0.7371) was 796.84 ± 0.24 kg/m3. For the same molecule, the mass density (303.15 K, x2 = 0.8498) was 795.59 ± 0.24 kg/m3, the mass density (303.15 K, x2 = 0.9401) was 794.95 ± 0.24 kg/m3 and the viscosity (308.15 K, x2 = 0) was 3.478 ± 0.026 mPa·s. For the same molecule, the viscosity (308.15 K, x2 = 0.0834) was 2.749 ± 0.021 mPa·s, the viscosity (308.15 K, x2 = 0.1619) was 2.21 ± 0.017 mPa·s and the viscosity (308.15 K, x2 = 0.2426) was 1.758 ± 0.014 mPa·s. For the same molecule, the viscosity (308.15 K, x2 = 0.3491) was 1.303 ± 0.01 mPa·s, the viscosity (308.15 K, x2 = 0.4375) was 1.021 ± 0.008 mPa·s and the viscosity (308.15 K, x2 = 0.5661) was 0.746 ± 0.006 mPa·s. It also gave a viscosity (308.15 K, x2 = 0.6502) of 0.613 ± 0.005 mPa·s, a viscosity (308.15 K, x2 = 0.7371) of 0.513 ± 0.005 mPa·s and a viscosity (308.15 K, x2 = 0.8498) of 0.416 ± 0.004 mPa·s. It also gave a viscosity (308.15 K, x2 = 0.9401) of 0.373 ± 0.004 mPa·s, a mass density (308.15 K, x2 = 0) of 805.01 ± 0.24 kg/m3 and a mass density (308.15 K, x2 = 0.0834) of 803.22 ± 0.24 kg/m3. It also gave a mass density (308.15 K, x2 = 0.1619) of 801.7 ± 0.24 kg/m3, a mass density (308.15 K, x2 = 0.2426) of 800.16 ± 0.24 kg/m3 and a mass density (308.15 K, x2 = 0.3491) of 798.16 ± 0.24 kg/m3. The mass density (308.15 K, x2 = 0.4375) was 796.6 ± 0.24 kg/m3, the mass density (308.15 K, x2 = 0.5661) was 794.57 ± 0.24 kg/m3 and the mass density (308.15 K, x2 = 0.6502) was 793.35 ± 0.24 kg/m3. For the same molecule, the mass density (308.15 K, x2 = 0.7371) was 792.26 ± 0.24 kg/m3, the mass density (308.15 K, x2 = 0.8498) was 790.95 ± 0.24 kg/m3 and the mass density (308.15 K, x2 = 0.9401) was 790.35 ± 0.24 kg/m3. For the same molecule, the viscosity (313.15 K, x2 = 0) was 2.853 ± 0.022 mPa·s, the viscosity (313.15 K, x2 = 0.0834) was 2.282 ± 0.017 mPa·s and the viscosity (313.15 K, x2 = 0.1619) was 1.846 ± 0.014 mPa·s. It also gave a viscosity (313.15 K, x2 = 0.2426) of 1.478 ± 0.012 mPa·s, a viscosity (313.15 K, x2 = 0.3491) of 1.095 ± 0.009 mPa·s and a viscosity (313.15 K, x2 = 0.4375) of 0.895 ± 0.007 mPa·s. It also gave a viscosity (313.15 K, x2 = 0.5661) of 0.684 ± 0.006 mPa·s, a viscosity (313.15 K, x2 = 0.6502) of 0.581 ± 0.005 mPa·s and a viscosity (313.15 K, x2 = 0.7371) of 0.481 ± 0.004 mPa·s. It also gave a viscosity (313.15 K, x2 = 0.8498) of 0.399 ± 0.004 mPa·s, a viscosity (313.15 K, x2 = 0.9401) of 0.361 ± 0.004 mPa·s and a mass density (313.15 K, x2 = 0) of 801.14 ± 0.24 kg/m3. It also gave a mass density (313.15 K, x2 = 0.0834) of 799.4 ± 0.24 kg/m3, a mass density (313.15 K, x2 = 0.1619) of 797.73 ± 0.24 kg/m3 and a mass density (313.15 K, x2 = 0.2426) of 796.12 ± 0.24 kg/m3. For the same molecule, the mass density (313.15 K, x2 = 0.3491) was 794.11 ± 0.24 kg/m3, the mass density (313.15 K, x2 = 0.4375) was 792.53 ± 0.24 kg/m3 and the mass density (313.15 K, x2 = 0.5661) was 790.44 ± 0.24 kg/m3. For the same molecule, the mass density (313.15 K, x2 = 0.6502) was 789.19 ± 0.24 kg/m3, the mass density (313.15 K, x2 = 0.7371) was 788.05 ± 0.24 kg/m3 and the mass density (313.15 K, x2 = 0.8498) was 786.69 ± 0.24 kg/m3. For the same molecule, the mass density (313.15 K, x2 = 0.9401) was 786 ± 0.24 kg/m3.
